Assay: xn = mol fraction of the nth substance listed
Settings: Fluid (supercritical or subcritical phases), x1 = 0.97; for speed of sound: Frequency=5 MHz, Pulse-echo method; for mass density: 283.15 K, Vibrating tube method

O=C=O [carbon dioxide] + CO
speed of sound [m/s]
Settings | 273.15 K | 283.14 K
14010 kPa | – | 615.2
20000 kPa | – | 679.8
25010 kPa | – | 725
29940 kPa | – | 763.8
34980 kPa | – | 799.7
39940 kPa | – | 831.8
39990 kPa | 875.6 | –
44950 kPa | 903.5 | –
45090 kPa | – | 862.8
49960 kPa | 929.9 | –
50150 kPa | – | 890.9
54970 kPa | 954.7 | –
55020 kPa | – | 916.3
59830 kPa | – | 940.2
60000 kPa | 978.4 | –
64950 kPa | 1000.7 | 964.2
69990 kPa | 1022.2 | –
70150 kPa | – | 987.4
74930 kPa | 1042.5 | –
74970 kPa | – | 1007.9
79680 kPa | – | 1027.1
80120 kPa | 1062.9 | –
90140 kPa | 1100 | –
90230 kPa | – | 1067.9
99950 kPa | – | 1102.7
99970 kPa | 1134.2 | –
109900 kPa | – | 1136.3
110030 kPa | 1167 | –
120080 kPa | – | 1168.8
120150 kPa | 1198.3 | –
139940 kPa | 1255 | –
140090 kPa | – | 1227.7
159790 kPa | 1307.2 | –
159980 kPa | – | 1281
180050 kPa | – | 1330.2
180530 kPa | 1357.4 | –

Settings | mass density [kg/m3]
5300 kPa | 882.11
5325 kPa | 882.5
5350 kPa | 882.83
5375 kPa | 883.08
5400 kPa | 883.4
5425 kPa | 883.67
5450 kPa | 883.98
5475 kPa | 884.26
5500 kPa | 884.47
5525 kPa | 884.8
5550 kPa | 885.04
5575 kPa | 885.37
5600 kPa | 885.62
5625 kPa | 885.95
5650 kPa | 886.26
5675 kPa | 886.49
5700 kPa | 886.8
5725 kPa | 887.09
5750 kPa | 887.39
5775 kPa | 887.67
5800 kPa | 888.01
5825 kPa | 888.24
5850 kPa | 888.54
5875 kPa | 888.77
5900 kPa | 889.08
5925 kPa | 889.31
5950 kPa | 889.55
5975 kPa | 889.92
6000 kPa | 890.13
6025 kPa | 890.33
6050 kPa | 890.62
6075 kPa | 890.95
6100 kPa | 891.19
6125 kPa | 891.52
6150 kPa | 891.86
6175 kPa | 892.08
6200 kPa | 892.35
6225 kPa | 892.62
6250 kPa | 892.89
6275 kPa | 893.14
6300 kPa | 893.45
6325 kPa | 893.63
6350 kPa | 893.89
6375 kPa | 894.18
6400 kPa | 894.43
6425 kPa | 894.67
6450 kPa | 894.92
6475 kPa | 895.17
6500 kPa | 895.37
6525 kPa | 895.62
6550 kPa | 895.96
6575 kPa | 896.11
6600 kPa | 896.41
6625 kPa | 896.62
6650 kPa | 896.9
6675 kPa | 897.02
6700 kPa | 897.4
6725 kPa | 897.56
6750 kPa | 897.77
6775 kPa | 898.06
6800 kPa | 898.37
6825 kPa | 898.6
6850 kPa | 898.87
6875 kPa | 899.09
6900 kPa | 899.3
6925 kPa | 899.5
6950 kPa | 899.65
6975 kPa | 899.77
7000 kPa | 899.79
7025 kPa | 899.99
7050 kPa | 900.2
7075 kPa | 900.45
7100 kPa | 900.68
7125 kPa | 900.92
7150 kPa | 901.15
7175 kPa | 901.36
7200 kPa | 901.57
7225 kPa | 901.84
7250 kPa | 902.09
7275 kPa | 902.25
7300 kPa | 902.49
7325 kPa | 902.74
7350 kPa | 902.98
7375 kPa | 903.16
7400 kPa | 903.45
7425 kPa | 903.64
7450 kPa | 903.9
7475 kPa | 904.05
7500 kPa | 904.3
7525 kPa | 904.46
7550 kPa | 904.69
7575 kPa | 904.94
7600 kPa | 905.11
7625 kPa | 905.36
7650 kPa | 905.61
7675 kPa | 905.8
7700 kPa | 906.04
7725 kPa | 906.26
7750 kPa | 906.42
7775 kPa | 906.67
7800 kPa | 906.89
7825 kPa | 907.08
7850 kPa | 907.32
7875 kPa | 907.57
7900 kPa | 907.73
7925 kPa | 908.06
7950 kPa | 908.15
7975 kPa | 908.39
8000 kPa | 908.68
8025 kPa | 908.88
8050 kPa | 909.06
8075 kPa | 909.27
8100 kPa | 909.45
8125 kPa | 909.7
8150 kPa | 909.86
8175 kPa | 910.09
8200 kPa | 910.33
8225 kPa | 910.56
8250 kPa | 910.76
8275 kPa | 910.96
8300 kPa | 911.17
8325 kPa | 911.44
8350 kPa | 911.66
8375 kPa | 911.83
8400 kPa | 912.07
8425 kPa | 912.24
8450 kPa | 912.4
8475 kPa | 912.59
8500 kPa | 912.85
8525 kPa | 913.06
8550 kPa | 913.26
8575 kPa | 913.46
8600 kPa | 913.66
8625 kPa | 913.87
8650 kPa | 914.07
8675 kPa | 914.29
8700 kPa | 914.39
8725 kPa | 914.62
8750 kPa | 914.82
8775 kPa | 915.04
8800 kPa | 915.26
8825 kPa | 915.43
8850 kPa | 915.64
8875 kPa | 915.83
8900 kPa | 916
8925 kPa | 916.16
8950 kPa | 916.35
8975 kPa | 916.53
9000 kPa | 916.73
9025 kPa | 916.93
9050 kPa | 917.12
9075 kPa | 917.31
9100 kPa | 917.55
9125 kPa | 917.75
9150 kPa | 917.9
9175 kPa | 918.13
9200 kPa | 918.33
9225 kPa | 918.6
9250 kPa | 918.7
9275 kPa | 918.95
9300 kPa | 919.11
9325 kPa | 919.31
9350 kPa | 919.52
9375 kPa | 919.69
9400 kPa | 919.87
9425 kPa | 920.09
9450 kPa | 920.32
9475 kPa | 920.47
9500 kPa | 920.65
9525 kPa | 920.85
9550 kPa | 921.09
9575 kPa | 921.21
9600 kPa | 921.39
9625 kPa | 921.56
9650 kPa | 921.81
9675 kPa | 921.97
9700 kPa | 922.14
9725 kPa | 922.38
9750 kPa | 922.58
9775 kPa | 922.71
9800 kPa | 922.94
9825 kPa | 923.15
9850 kPa | 923.28
9875 kPa | 923.48
9900 kPa | 923.69
9925 kPa | 923.77
9950 kPa | 924
9975 kPa | 924.18
10000 kPa | 924.34
10025 kPa | 924.53
10050 kPa | 924.71
10075 kPa | 924.83
10100 kPa | 925.08
10125 kPa | 925.24
10150 kPa | 925.41
10175 kPa | 925.57
10200 kPa | 925.75
10225 kPa | 926.06
10250 kPa | 926.06
10275 kPa | 926.3
10300 kPa | 926.47
10325 kPa | 926.69
10350 kPa | 926.79
10375 kPa | 927.06
10400 kPa | 927.17
10425 kPa | 927.34
